Experimental findings from ChEMBL document CHEMBL1201862, “PubChem BioAssay data set” (2004) are described below.

Assay [1] can be described thus: non-specific cell cytotoxicity, dose response, cytotoxicity control for PAX8 inhibitor project, plate reader, dry powder samples (AID 743021). The assay is classed as functional, cell-based.
Another assay deals with T1, Insulin-degrading enzyme (Homo sapiens, UniProt P14735).
T1 sequence (P14735 whole entry): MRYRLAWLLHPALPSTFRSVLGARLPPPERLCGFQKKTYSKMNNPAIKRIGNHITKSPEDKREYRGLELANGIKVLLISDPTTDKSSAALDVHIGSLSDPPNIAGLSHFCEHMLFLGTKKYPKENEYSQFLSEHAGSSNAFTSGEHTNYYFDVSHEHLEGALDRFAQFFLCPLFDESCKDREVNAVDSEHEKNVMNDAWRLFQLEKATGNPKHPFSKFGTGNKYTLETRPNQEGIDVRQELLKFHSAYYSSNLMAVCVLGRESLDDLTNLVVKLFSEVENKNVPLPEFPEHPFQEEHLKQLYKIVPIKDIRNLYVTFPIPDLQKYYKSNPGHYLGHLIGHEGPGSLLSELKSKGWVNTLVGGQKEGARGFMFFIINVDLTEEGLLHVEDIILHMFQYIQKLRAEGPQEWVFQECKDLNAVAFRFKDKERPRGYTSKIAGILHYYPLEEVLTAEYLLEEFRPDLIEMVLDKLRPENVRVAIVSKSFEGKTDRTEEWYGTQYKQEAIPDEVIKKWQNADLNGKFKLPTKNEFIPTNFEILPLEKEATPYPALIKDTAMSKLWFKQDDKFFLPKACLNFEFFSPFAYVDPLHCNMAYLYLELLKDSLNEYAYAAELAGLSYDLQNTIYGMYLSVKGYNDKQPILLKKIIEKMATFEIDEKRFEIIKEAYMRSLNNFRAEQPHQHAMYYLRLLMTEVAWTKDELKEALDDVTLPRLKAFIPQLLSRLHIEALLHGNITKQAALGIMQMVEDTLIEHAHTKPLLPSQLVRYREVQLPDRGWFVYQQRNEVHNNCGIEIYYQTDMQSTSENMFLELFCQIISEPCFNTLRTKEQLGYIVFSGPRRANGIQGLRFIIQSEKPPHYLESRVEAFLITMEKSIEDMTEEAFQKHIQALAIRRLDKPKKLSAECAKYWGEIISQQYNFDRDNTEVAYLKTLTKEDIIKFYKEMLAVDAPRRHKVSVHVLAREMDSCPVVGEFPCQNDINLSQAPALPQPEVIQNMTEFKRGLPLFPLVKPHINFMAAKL
The assay is described as follows: activators of recombinant IDE enzyme, dose response, counter-screen for IDE activator project, biochemical, fluorescence polarization (AID 588681). Background: Counterscreens check selectivity or assay interference.

Activity calls are given as the source filed them.

One may read the AC50 as the concentration giving half of the maximal activity seen. Take `CCOC(=O)c1c(C)[nH]c2c1-c1ccccc1C(=O)C2=O`: in assay [1], the AC50 is 4.93 µM (active). By EC50 is commonly meant the concentration that produces a half-maximal response. Regarding `CCOC(=O)C1=C(c2ccccc2)N=C(N)NC1c1ccc(OCc2ccc(Cl)cc2)c(OC)c1` (configuration not stated), the EC50 on Insulin-degrading enzyme is 52.1 µM (inactive).
